Measured values: patent publication US9085514B2, “Unnatural amino acids comprising a cyclooctynyl or trans-cyclooctenyl analog group and uses thereof” (EMBL, priority 2011, dated 2015)

Experiments:
Format in all cases: cell-based, M. maize
[1] = biological target: T1, mutant pyrrolysyl tRNA synthetase comprising amino acid substitutions Y306A and Y384F (pylRS^AF) (Methanosarcina mazei, UniProt Q8PWY1, Y306A/Y384F); experiment: Expression of GFP^TAG in E. coli in presence of UAA (amber suppression) with tRNA^pyl/pylRS^AF; details: 1 mM UAA; for Expression of GFP^TAG protein: pylRS^WT or pylRS^AF, compared to negative control (FIG. 1); for incorporation by RS^AF (GFP fluorescence, SDS-PAGE): FIG. 6
T1 construct: expressed in transfected cells; host or cells: E. coli Top10, plasmid pEVOL tRNA^pyl/pylRS^AF

tRNA^pyl/pylRS^AF = biological target: T2, tRNA^pyl/pylRS^AF (Methanosarcina mazei, UniProt Q8PWY1, Y306A/Y384F); experiment: UAA dependent amber suppression in HeLa cells (NLS-mCherry-^TAGGFP, automated microscope), RS^AF; details: HeLa nuclei, 24 h after transfection
T2 construct: expressed in transfected cells; host or cells: HeLa Kyoto cells, plasmid pCMV tRNA^pyl/pylRS^AF
Description: (§1) A single expression plasmid for expression of both tRNA^pyl and the pyrrolysine synthetase pylRS was generated by replacing the tRNA and synthetase of mammalian UAA expression plasmid pSWAN (Liu et al., Nat Methods 2007, 4: 239) with a synthetic gene derived from the plasmid pEVOL tRNA^pyl/pylRS^WT or pEVOL tRNA^pyl/pylRS^AF.
(§2) For mammalian amber suppression studies, a NLS-mCherry-^TAGGFP fusion protein was generated. Due to the nuclear localization sequence (NLS) the expressed protein was targeted to the nucleus. Accordingly, mCherry expression was visible by orange fluorescence in the nucleus signifying the successful transfection of the plasmid. Green fluorescence indicated successful GFP expression due to successful co-transfection of the appropriate tRNA^pyl/pylRS plasmid and suppression of the amber codon in the fused ^TAGGFP.
(§3) UAA concentration dependent GFP expression in the presence of UAA 1, 13, 16 or 17 and RS^WT or RS^AF was analyzed using the following automated microscope procedure.
(§4) HeLa Kyoto cells were grown in DMEM low glucose medium (1 g/l) (Sigma, Munich, Germany) with 10% FBS (Sigma) and 1% L-glutamine. 10−20×10^3 cells per well were seeded in a glass bottom 24-well chamber and cultured overnight. On the next-day, the growth medium was exchanged for fresh one supplied with increasing concentrations of UAA (0, 1, 10, 100, 250, 1000 μM), and the cells were co-transfected (1:1 ratio) with plasmids-carrying NLS-mCherry-^TAGGFP and the respective tRNA^pyl/pylRS pair (RS^WT or RS^AF) using jetPRIME transfection reagent following the manufacturer protocol (Polyplus-transfection. SA, Illkirch, France). 24 h after transfection, cells were stained with Hoechst 33342 (1 μg/ml, 10 min), fixed with 2% paraformaldehyde (15 min, RT) and kept in PBS for imaging. For every UAA concentration, the experiment was repeated twice and in two independently prepared 24 well chambers.
(§5) Microscopy imaging was performed using automated widefield Olympus ScanR microscope (objective UplanApo 20×, 0.70 NA, Hamamatsu Orca R2 CCD camera) in, three channels (Hoechst, GFP, mCherry). For every well at least 25 images (1344×1024 pixels; 433×330 μm, 12-bit) were acquired (exposure times: 30 ms Hoechst, 100 ms mCherry, 100 ms for GFP). Hoechst staining allowed use of the automated focus option of the system. Images were analyzed using the ImageJ macro (http://fiji.sc/wiki/index.php) allowing quantification of GFP fluorescence intensity in the cells showing mCherry fluorescence signal. Hoechst staining was used to threshold and select nuclei. For every detected nucleus, intensities, in the mCherry and GFP channels were quantified. Background intensities in GFP and mCherry channel were measured using one well of each chamber containing cells that were not transfected but stained with Hoechst. Those background values set the threshold to discriminate cells expressing mCherry from the background. For every well the average intensity of GFP (IGFP) in cells positive for GFP and mCherry signals was determined as a measure of successful UAA incorporation. GFP intensities were normalized separately for every UAA based on the maximal observed signal (either for RS^WT or RS^AF).

tRNA^pyl/pylRS^WT = biological target: T3, tRNA^pyl/pylRS^WT (Methanosarcina mazei, UniProt Q8PWY1); experiment: UAA dependent amber suppression in HeLa cells (NLS-mCherry-^TAGGFP, automated microscope), RS^WT; details: HeLa nuclei, 24 h after transfection
T3 construct: expressed in transfected cells; host or cells: HeLa Kyoto cells, plasmid pCMV tRNA^pyl/pylRS^WT
Description: as §1, §2, §3, §4, §5

[2] = biological target: T4, wildtype pyrrolysyl tRNA synthetase (pylRS^WT) (Methanosarcina mazei, UniProt Q8PWY1); experiment: Expression of GFP^TAG in E. coli in presence of UAA (amber suppression) with tRNA^pyl/pylRS^WT; details: 1 mM UAA, FIG. 6
T4 construct: expressed in transfected cells; host or cells: E. coli Top10, plasmid pEVOL tRNA^pyl/pylRS^WT
T4 sequence (Q8PWY1 whole entry): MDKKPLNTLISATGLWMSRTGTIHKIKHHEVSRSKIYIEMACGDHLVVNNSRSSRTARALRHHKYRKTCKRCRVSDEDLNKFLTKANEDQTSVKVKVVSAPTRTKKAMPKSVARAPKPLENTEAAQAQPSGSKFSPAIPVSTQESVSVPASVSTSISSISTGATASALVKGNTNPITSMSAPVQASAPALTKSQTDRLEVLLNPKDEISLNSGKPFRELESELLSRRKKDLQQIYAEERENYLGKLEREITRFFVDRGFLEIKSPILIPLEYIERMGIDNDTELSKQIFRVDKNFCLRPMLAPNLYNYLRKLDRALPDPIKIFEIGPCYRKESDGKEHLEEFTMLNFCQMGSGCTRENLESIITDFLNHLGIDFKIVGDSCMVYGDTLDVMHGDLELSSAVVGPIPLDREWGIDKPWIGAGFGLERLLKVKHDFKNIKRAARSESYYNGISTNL

T3 sequence (Q8PWY1 whole entry): as above
T1 sequence (Q8PWY1 whole entry Y306A/Y384F): as the sequence (Q8PWY1 whole entry) above, with Y306A, Y384F counted along it
T2 sequence (Q8PWY1 whole entry Y306A/Y384F): as the sequence (Q8PWY1 whole entry) above, with Y306A, Y384F counted along it

Row | SMILES | Expression of GFP^TAG protein [1] | IGFP (average intensity of GFP, normalized) (tRNA^pyl/pylRS^AF; 1 μM UAA) | IGFP (average intensity of GFP, normalized) (tRNA^pyl/pylRS^AF; 10 μM UAA) | IGFP (average intensity of GFP, normalized) (tRNA^pyl/pylRS^AF; 100 μM UAA) | IGFP (average intensity of GFP, normalized) (tRNA^pyl/pylRS^AF; 250 μM UAA) | IGFP (average intensity of GFP, normalized) (tRNA^pyl/pylRS^AF; 1000 μM UAA) | IGFP (average intensity of GFP, normalized) (tRNA^pyl/pylRS^WT; 1 μM UAA) | IGFP (average intensity of GFP, normalized) (tRNA^pyl/pylRS^WT; 10 μM UAA) | IGFP (average intensity of GFP, normalized) (tRNA^pyl/pylRS^WT; 100 μM UAA) | IGFP (average intensity of GFP, normalized) (tRNA^pyl/pylRS^WT; 250 μM UAA) | IGFP (average intensity of GFP, normalized) (tRNA^pyl/pylRS^WT; 1000 μM UAA) | incorporation by RS^AF (GFP fluorescence, SDS-PAGE) [1] | Incorporation by RS^WT (GFP^TAG expression) [2]
1 | N[C@@H](CCCCNC(=O)OCCOC1C#CCCCCC1)C(=O)O (stereo partly drawn) [compound 2, N-ε-((2-(Cyclooct-2-yn-1-yloxy)ethoxy)carbonyl)-L-lysine] | observed | – | – | – | – | – | – | – | – | – | – | – | –
2 | N[C@@H](CCCCNC(=O)OC1C#CCCCCC1)C(=O)O (stereo partly drawn) [compound 1, N-ε-((Cyclooct-2-yn-1-yloxy)carbonyl)-L-lysine] | observed | 23.7 | 131.7 | 106.1 | 203.6 | 118.4 | 3.3 | 5.9 | 27.6 | 59.6 | 57.5 | efficient incorporation | –
3 | N[C@@H](CCCCNC(=O)OC1CC2C=CC1C2)C(=O)O (some centres unmarked) [compound 16] | – | 5.7 | 46.1 | 114.8 | 100.4 | 96.9 | 1.5 | 6.9 | 9.4 | 171.6 | 178.3 | efficient incorporation | highest GFP^TAG expression
4 | N[C@@H](CCCCNC(=O)OCC1CC2C=CC1C2)C(=O)O (some centres unmarked) [compound 17] | – | 10.9 | 57.5 | 76.6 | 163.5 | 108.9 | 4.2 | 2.6 | 4.3 | 5.7 | 12.8 | efficient incorporation | –
5 | N[C@@H](CCCCNC(=O)OC1CC/C=C/CCC1)C(=O)O (some centres unmarked) [compound 13] | – | 11.1 | 11.0 | 28.8 | 36.5 | 20.6 | 6.3 | 6.9 | 15.9 | 22.3 | 33.2 | efficient incorporation | –
